Where “and” joins values, the source holds several entries; their conditions need not be identical. Equal values may be shown once.
Key:
[1] = system: cytochrome P450 (CYP) 3A4 and CYP2C19; conditions: background statement, no reference given; cited from earlier work
CYP2C8 = system: CYP2C8; design: method as in data on file at Galapagos; conditions: in vitro; ref data on file at Galapagos; cited from earlier work
[2] = design: method as in PMID 32902984; conditions: human and animals; cited from earlier work
[3] = Safety and tolerability, study 1 MAD part; assay type: in vivo, human
Method: Safety and tolerability were assessed on the basis of adverse events (AEs), which were monitored throughout both studies. Additional safety assessments included vital signs (including supine [and standing in study 2] heart rate, systolic and diastolic blood pressure, and oral body temperature), 12‐lead electrocardiogram (ECG), clinical laboratory tests (hematology, coagulation [study 2 only], serum/plasma chemistry, urinalysis, urine drug screen, serology, and alcohol breath test), and a comprehensive physical examination. […] In the MAD part of study 1, all additional safety assessments were performed at screening; days 1, 2, 8, 14, and 15; and at follow‐up. In study 2, additional safety assessments were performed at screening (between 21 and 2 days before the first study drug administration); days 1, 2, 5, 10, 14, 15, and 20 (clinical laboratory tests were not performed on day 20); at early discontinuation; and at follow‐up. For study 2, renal function tests (measurement of estimated creatinine clearance rate using the Cockcroft‐Gault equation) were also included in the clinical laboratory tests for safety assessment.
In both studies, the safety analysis was descriptive and focused on changes from baseline and treatment‐emergent findings.

O=c1nc(OC[C@@H]2COCCO2)cc2n1CCc1cc(C#CC3CC3)ccc1-2 [GLPG1205, 9‐cyclopropylethynyl‐2‐((S)‐1‐[1,4]dioxan‐2‐ylmethoxy)‐6,7‐dihydropyrimido[6,1‐a]isoquinolin‐4‐one]
main enzymes involved in GLPG1205 metabolism [1]: cytochrome P450 (CYP) 3A4 and CYP2C19 | inhibition of CYP2C8 (CYP2C8): weak inhibition | plasma protein binding [2]: ≥ 92% | Abdominal discomfort (TEAE) ([3]; 50 mg QD (n = 6)): 0 number of subjects (%) | Abdominal distension (TEAE) ([3]; 50 mg QD (n = 6)): 0 number of subjects (%) | Abdominal pain (TEAE) ([3]; 50 mg QD (n = 6)): 0 number of subjects (%) | Abdominal pain upper (TEAE) ([3]; 50 mg QD (n = 6)): 0 number of subjects (%) | Any TEAE ([3]; 50 mg QD (n = 6)): 2 (33.3) number of subjects (%) | Decreased appetite (TEAE) ([3]; 50 mg QD (n = 6)): 0 number of subjects (%) | Dehydration (TEAE) ([3]; 50 mg QD (n = 6)): 0 number of subjects (%) | Diarrhea (TEAE) ([3]; 50 mg QD (n = 6)): 1 (16.7) number of subjects (%) | Disturbance in attention (TEAE) ([3]; 50 mg QD (n = 6)): 0 number of subjects (%) | Dizziness (TEAE) ([3]; 50 mg QD (n = 6)): 0 number of subjects (%) | Dry skin (TEAE) ([3]; 50 mg QD (n = 6)): 1 (16.7) number of subjects (%) | Ecchymosis (TEAE) ([3]; 50 mg QD (n = 6)): 0 number of subjects (%) | Erythema (TEAE) ([3]; 50 mg QD (n = 6)): 0 number of subjects (%) | Fatigue (TEAE) ([3]; 50 mg QD (n = 6)): 0 number of subjects (%) | Flatulence (TEAE) ([3]; 50 mg QD (n = 6)): 0 number of subjects (%) | Gastrointestinal disorders (TEAE) ([3]; 50 mg QD (n = 6)): 1 (16.7) number of subjects (%) | General disorders and administration site conditions (TEAE) ([3]; 50 mg QD (n = 6)): 0 number of subjects (%) | Headache (TEAE) ([3]; 50 mg QD (n = 6)): 0 number of subjects (%) | Hot flush (TEAE) ([3]; 50 mg QD (n = 6)): 0 number of subjects (%) | Metabolism and nutrition disorders (TEAE) ([3]; 50 mg QD (n = 6)): 0 number of subjects (%) | Musculoskeletal and connective tissue disorders (TEAE) ([3]; 50 mg QD (n = 6)): 0 number of subjects (%) | Musculoskeletal stiffness (TEAE) ([3]; 50 mg QD (n = 6)): 0 number of subjects (%) | Nausea (TEAE) ([3]; 50 mg QD (n = 6)): 0 number of subjects (%) | Nervous system disorders (TEAE) ([3]; 50 mg QD (n = 6)): 0 number of subjects (%) | Oropharyngeal pain (TEAE) ([3]; 50 mg QD (n = 6)): 0 number of subjects (%) | Respiratory, thoracic, and mediastinal disorders (TEAE) ([3]; 50 mg QD (n = 6)): 0 number of subjects (%) | Skin and subcutaneous tissue disorders (TEAE) ([3]; 50 mg QD (n = 6)): 1 (16.7) number of subjects (%) | Somnolence (TEAE) ([3]; 50 mg QD (n = 6)): 0 number of subjects (%) | Vascular disorders (TEAE) ([3]; 50 mg QD (n = 6)): 0 number of subjects (%) | Vomiting (TEAE) ([3]; 50 mg QD (n = 6)): 0 number of subjects (%) | subjects with treatment-emergent abnormality during physical examination ([3]; 50 mg once daily): 1 n | Abdominal discomfort (TEAE) ([3]; 100 mg QD (n = 6)): 1 (16.7) number of subjects (%) | Abdominal distension (TEAE) ([3]; 100 mg QD (n = 6)): 0 number of subjects (%) | Abdominal pain (TEAE) ([3]; 100 mg QD (n = 6)): 0 number of subjects (%) | Abdominal pain upper (TEAE) ([3]; 100 mg QD (n = 6)): 1 (16.7) number of subjects (%) | Any TEAE ([3]; 100 mg QD (n = 6)): 5 (83.3) number of subjects (%) | Decreased appetite (TEAE) ([3]; 100 mg QD (n = 6)): 0 number of subjects (%) | Dehydration (TEAE) ([3]; 100 mg QD (n = 6)): 0 number of subjects (%) | Diarrhea (TEAE) ([3]; 100 mg QD (n = 6)): 2 (33.3) number of subjects (%) | Disturbance in attention (TEAE) ([3]; 100 mg QD (n = 6)): 0 number of subjects (%) | Dizziness (TEAE) ([3]; 100 mg QD (n = 6)): 0 number of subjects (%) | Dry skin (TEAE) ([3]; 100 mg QD (n = 6)): 0 number of subjects (%) | Ecchymosis (TEAE) ([3]; 100 mg QD (n = 6)): 1 (16.7) number of subjects (%) | Erythema (TEAE) ([3]; 100 mg QD (n = 6)): 1 (16.7) number of subjects (%) | Fatigue (TEAE) ([3]; 100 mg QD (n = 6)): 0 number of subjects (%) | Flatulence (TEAE) ([3]; 100 mg QD (n = 6)): 0 number of subjects (%) | Gastrointestinal disorders (TEAE) ([3]; 100 mg QD (n = 6)): 3 (50.0) number of subjects (%) | General disorders and administration site conditions (TEAE) ([3]; 100 mg QD (n = 6)): 0 number of subjects (%) | Headache (TEAE) ([3]; 100 mg QD (n = 6)): 3 number of subjects (%) and 3 (50.0) number of subjects (%) | Hot flush (TEAE) ([3]; 100 mg QD (n = 6)): 0 number of subjects (%) | Metabolism and nutrition disorders (TEAE) ([3]; 100 mg QD (n = 6)): 0 number of subjects (%) | Musculoskeletal and connective tissue disorders (TEAE) ([3]; 100 mg QD (n = 6)): 0 number of subjects (%) | Musculoskeletal stiffness (TEAE) ([3]; 100 mg QD (n = 6)): 0 number of subjects (%)
